Test results as given in patent US9879041B2, “Saccharide dendritic cluster compounds as inhibitors of BACE-1” (Victoria Link Limited, priority 2012, dated 2018).

Assays:
Aβ1-40 = experiment: Brain slice assay, soluble Aβ1-40 in medium by ELISA; assay type: cell-based, Transgenic TG2576 mice; details: TG2576 mouse brain slices; 1, 10 and 100 μg/ml; 96 hours vs. 48 hours
Protocol: Transgenic TG2576 mice expressing the human SWE-mutated amyloid precursor protein are sacrificed by cervical dislocation at 8-10 months of age. The brain is removed and 400 μm coronal sections are obtained using a manual tissue chopper (Leica Microsystems). Slices are washed briefly in HBSS (Hank balanced salt solution, Life Technologies) supplemented with 4.5 mg/ml glucose (Sigma-Aldrich) and 3.75 μg/ml amphotericin B (Sigma-Aldrich) and transferred to a transwell plate (Costar 3396 HTS 24 well transwell plate with 0.4 μm polycarbonate membrane) in 1 ml of 50% MEM (minimal essential medium, Life Technologies) supplemented with 25% heat-inactivated horse serum (Life Technologies), 25% HBSS, 0.5 mM glutamine (Life Technologies), 4.5 mg/ml glucose and 3.75 μg/ml amphotericin B. Slices are incubated 48 hours at 37 C, 5% CO2. […] Soluble Aμ1-40 in the medium is quantified using a SensoLyte™ Anti-Human βeta-Amyloid (1-40) ELISA kit (Anaspec) in accordance with the manufacturer's instructions. […] The color reaction is stopped with 50 μl of Stop Solution and the plate is read at 450 nm using an absorbance plate reader (Thermo Multiskan EX). The amount of Aβ-40 is quantified by reference to a standard curve of Aβ1-40 (supplied in the SensoLyte™ kit). Data are expressed as a percentage of the Aβ1-40 present at 96 hours vs. 48 hours for each condition.

bovine Factor Xa = biological target: T1, bovine Factor Xa (Bos taurus, UniProt P00743); experiment: Factor Xa anticoagulant assay (antithrombin-III mediated inactivation of Factor Xa); assay type: biochemical; details: dose range 0.004 to 50 μg/ml
T1 construct: purchased Thermo Scientific 32521
Protocol: The plate is incubated for two minutes at 37° C. […] 19 μl of 2.5 mM chromogenic substrate (American Diagnostica Inc. Spectrozyme FXa Product No 222L) in assay buffer is added to each well and incubated for 2 hours at 37° C., followed by addition of 5 μl of 30% acetic acid to each well. Absorbance at 405 nm is read on a multiplate reader.

recombinant human BACE-1 = biological target: T2, recombinant human BACE-1 (Homo sapiens, UniProt P56817); experiment: BACE-1 inhibition by in vitro FRET peptide cleavage assay; assay type: biochemical; details: pH 4.5, 1 h, 25° C.
T2 construct: purchased R & D Systems 931-AS
Protocol: The ability of compounds of the invention to inhibit BACE-1 cleavage of APP is assessed using a fluorescent resonance energy transfer (FRET) peptide cleavage assay employing the FRET peptide HiLyte 488-Glu-Val-Asn-Leu-Asp-Ala-Glu-Phe-Lys(QXL520)-OH (Anaspec, Inc., CA, USA; Cat no. 60604-01). When intact, the amino terminal fluorophore is quenched, but upon enzymatic cleavage the fluorophore is released from quencher and fluoresces (520 nm). Assays are performed in triplicate in 96 well black plates (20 mM sodium acetate, 0.1% Triton-X-100, pH 4.5; 2.2 ng peptide per well and 25 ng/well of recombinant human BACE-1 (R & D Systems Cat no. 931-AS). The appropriate controls for enzyme activity (substrate plus enzyme, and substrate only) are employed and plates are incubated (1 h, 25° C., with activity stopped with 2.5 M sodium acetate). Compounds of the invention are added in the concentration range from 100-0.0001 μg/mL. Fluorescence 480ex/520em is measured on a Polarstar plate reader (BMG LabTechnologies, UK) and data are analysed by plotting log10 concentration of compound against percent inhibition and fitting a logistic dose response sigmoidal curve using OriginPro 8 (OriginLabs, Mass, USA).

T1 sequence (P01008 33-464 partner): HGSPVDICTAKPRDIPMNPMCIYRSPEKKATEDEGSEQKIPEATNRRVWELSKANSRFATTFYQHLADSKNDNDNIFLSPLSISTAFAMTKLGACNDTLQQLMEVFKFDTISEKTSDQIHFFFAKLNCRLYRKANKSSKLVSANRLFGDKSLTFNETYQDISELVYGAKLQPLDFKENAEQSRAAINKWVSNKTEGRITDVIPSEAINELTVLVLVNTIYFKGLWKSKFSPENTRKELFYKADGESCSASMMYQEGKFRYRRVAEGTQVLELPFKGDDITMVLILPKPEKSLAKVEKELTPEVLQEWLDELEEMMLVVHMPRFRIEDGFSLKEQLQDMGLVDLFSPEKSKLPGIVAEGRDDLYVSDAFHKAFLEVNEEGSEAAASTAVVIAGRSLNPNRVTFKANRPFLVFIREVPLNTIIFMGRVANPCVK
T1 sequence (P00743 234-492 limits assumed): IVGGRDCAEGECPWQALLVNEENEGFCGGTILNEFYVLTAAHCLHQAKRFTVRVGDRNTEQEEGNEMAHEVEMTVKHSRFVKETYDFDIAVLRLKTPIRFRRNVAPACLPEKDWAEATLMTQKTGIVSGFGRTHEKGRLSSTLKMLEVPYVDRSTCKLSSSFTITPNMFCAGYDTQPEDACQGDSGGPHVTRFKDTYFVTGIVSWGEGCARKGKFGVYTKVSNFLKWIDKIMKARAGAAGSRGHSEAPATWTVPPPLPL
T2 sequence (P56817 46-501): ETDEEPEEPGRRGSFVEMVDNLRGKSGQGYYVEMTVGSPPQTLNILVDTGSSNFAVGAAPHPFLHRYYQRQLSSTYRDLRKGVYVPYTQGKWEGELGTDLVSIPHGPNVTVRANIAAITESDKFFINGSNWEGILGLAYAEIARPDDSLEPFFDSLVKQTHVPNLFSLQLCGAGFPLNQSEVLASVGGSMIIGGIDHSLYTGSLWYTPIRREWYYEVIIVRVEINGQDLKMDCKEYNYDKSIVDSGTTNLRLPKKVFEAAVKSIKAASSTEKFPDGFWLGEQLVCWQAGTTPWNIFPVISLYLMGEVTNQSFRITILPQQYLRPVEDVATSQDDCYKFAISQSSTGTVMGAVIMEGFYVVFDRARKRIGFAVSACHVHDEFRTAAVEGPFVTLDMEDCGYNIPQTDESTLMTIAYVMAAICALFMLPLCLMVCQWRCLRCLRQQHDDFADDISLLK

Row | Compound | ability to lower amounts of Aβ1-40 in brain slices (Aβ1-40) | ability to accelerate antithrombin-III mediated inactivation of Factor Xa, as measured by cleavage of a peptide substrate (bovine Factor Xa) | IC50 (recombinant human BACE-1) [nM]
1 | CC(=O)NC1C(OC2C(C(=O)O)OC(OCCCCCCNC(=O)CCCCCCCNC(=O)CCOCC(COCCC(=O)NCCCCCCCC(=O)NCCCCCCOC3OC(C(=O)O)C(OC4OC(COS(=O)(=O)O)C(O)C(O)C4NC(C)=O)C(O)C3O)(COCCC(=O)NCCCCCCCC(=O)NCCCCCCOC3OC(C(=O)O)C(OC4OC(COS(=O)(=O)O)C(O)C(O)C4NC(C)=O)C(O)C3O)COCCC(=O)NCCCCCCCC(=O)NCCCCCCOC3OC(C(=O)O)C(OC4OC(COS(=O)(=O)O)C(O)C(O)C4NC(C)=O)C(O)C3O)C(O)C2O)OC(COS(=O)(=O)O)C(O)C1O (stereo not shown) [Compound 18a] | demonstrate the ability to lower amounts of Aβ1-40 |  | 
2 | CC(=O)NC1C(OC2C(C(=O)O)OC(OCCCCCCNC(=O)CCCCCCCNC(=O)CCOCC(COCCC(=O)NCCCCCCCC(=O)NCCCCCCOC3OC(C(=O)O)C(OC4OC(COS(=O)(=O)O)C(O)C(O)C4NC(C)=O)C(O)C3O)(COCCC(=O)NCCCCCCCC(=O)NCCCCCCOC3OC(C(=O)O)C(OC4OC(COS(=O)(=O)O)C(O)C(O)C4NC(C)=O)C(O)C3O)COCCC(=O)NCCCCCCCC(=O)NCCCCCCOC3OC(C(=O)O)C(OC4OC(COS(=O)(=O)O)C(O)C(O)C4NC(C)=O)C(O)C3O)C(O)C2O)OC(COS(=O)(=O)O)C(O)C1O (stereo not shown) [Compound 18b] |  | do not display any measurable ability | ~3100
3 | CC(=O)NC1C(OC2C(C(=O)O)OC(OC3C(COS(=O)(=O)O)OC(OC4C(C(=O)O)OC(OCCCCCCNC(=O)CCCCCCCNC(=O)CCOCC(COCCC(=O)NCCCCCCCC(=O)NCCCCCCOC5OC(C(=O)O)C(OC6OC(COS(=O)(=O)O)C(OC7OC(C(=O)O)C(OC8OC(COS(=O)(=O)O)C(O)C(O)C8NC(C)=O)C(O)C7O)C(O)C6NC(C)=O)C(O)C5O)(COCCC(=O)NCCCCCCCC(=O)NCCCCCCOC5OC(C(=O)O)C(OC6OC(COS(=O)(=O)O)C(OC7OC(C(=O)O)C(OC8OC(COS(=O)(=O)O)C(O)C(O)C8NC(C)=O)C(O)C7O)C(O)C6NC(C)=O)C(O)C5O)COCCC(=O)NCCCCCCCC(=O)NCCCCCCOC5OC(C(=O)O)C(OC6OC(COS(=O)(=O)O)C(OC7OC(C(=O)O)C(OC8OC(COS(=O)(=O)O)C(O)C(O)C8NC(C)=O)C(O)C7O)C(O)C6NC(C)=O)C(O)C5O)C(O)C4O)C(NC(C)=O)C3O)C(O)C2O)OC(COS(=O)(=O)O)C(O)C1O (stereo not shown) [Compound 18c] |  | do not display any measurable ability | ~39.5
4 | CC(=O)NC1C(OCCCCCCNC(=O)CCOCC(COCCC(=O)NCCCCCCOC2OC(COS(=O)(=O)O)C(O)C(O)C2NC(C)=O)(COCCC(=O)NCCCCCCOC2OC(COS(=O)(=O)O)C(O)C(O)C2NC(C)=O)COCCC(=O)NCCCCCCOC2OC(COS(=O)(=O)O)C(O)C(O)C2NC(C)=O)OC(COS(=O)(=O)O)C(O)C1O (stereo not shown) [Compound 18e] |  | do not display any measurable ability | ~25600
5 | CC(=O)NC1C(OCCCCCCNC(=O)CCCCCCCNC(=O)CCOCC(COCCC(=O)NCCCCCCCC(=O)NCCCCCCOC2OC(COS(=O)(=O)O)C(O)C(O)C2NC(C)=O)(COCCC(=O)NCCCCCCCC(=O)NCCCCCCOC2OC(COS(=O)(=O)O)C(O)C(O)C2NC(C)=O)COCCC(=O)NCCCCCCCC(=O)NCCCCCCOC2OC(COS(=O)(=O)O)C(O)C(O)C2NC(C)=O)OC(COS(=O)(=O)O)C(O)C1O (stereo not shown) [Compound 18h] |  | do not display any measurable ability | 794 to 1980
6 | CC(=O)NC1C(OC2C(C(=O)O)OC(OCCCCCCNC(=O)CCCCCCCNC(=O)CCOCC(COCCC(=O)NCCCCCCCC(=O)NCCCCCCOC3OC(C(=O)O)C(OC4OC(COS(=O)(=O)O)C(O)C(O)C4NC(C)=O)C(O)C3OS(=O)(=O)O)(COCCC(=O)NCCCCCCCC(=O)NCCCCCCOC3OC(C(=O)O)C(OC4OC(COS(=O)(=O)O)C(O)C(O)C4NC(C)=O)C(O)C3OS(=O)(=O)O)COCCC(=O)NCCCCCCCC(=O)NCCCCCCOC3OC(C(=O)O)C(OC4OC(COS(=O)(=O)O)C(O)C(O)C4NC(C)=O)C(O)C3OS(=O)(=O)O)C(OS(=O)(=O)O)C2O)OC(COS(=O)(=O)O)C(O)C1O (stereo not shown) [Compound 20a] |  |  | ~14.1
7 | CC(=O)NC1C(OC2C(C(=O)O)OC(OCCCCCCNC(=O)CCCCCCCNC(=O)CCOCC(COCCC(=O)NCCCCCCCC(=O)NCCCCCCOC3OC(C(=O)O)C(OC4OC(COS(=O)(=O)O)C(O)C(O)C4NC(C)=O)C(O)C3OS(=O)(=O)O)(COCCC(=O)NCCCCCCCC(=O)NCCCCCCOC3OC(C(=O)O)C(OC4OC(COS(=O)(=O)O)C(O)C(O)C4NC(C)=O)C(O)C3OS(=O)(=O)O)COCCC(=O)NCCCCCCCC(=O)NCCCCCCOC3OC(C(=O)O)C(OC4OC(COS(=O)(=O)O)C(O)C(O)C4NC(C)=O)C(O)C3OS(=O)(=O)O)C(OS(=O)(=O)O)C2O)OC(COS(=O)(=O)O)C(O)C1O (stereo not shown) [Compound 20b] |  | do not display any measurable ability | ~56.4
8 | CC(=O)NC1C(OC2C(C(=O)O)OC(OC3C(COS(=O)(=O)O)OC(OC4C(C(=O)O)OC(OCCCCCCNC(=O)CCCCCCCNC(=O)CCOCC(COCCC(=O)NCCCCCCCC(=O)NCCCCCCOC5OC(C(=O)O)C(OC6OC(COS(=O)(=O)O)C(OC7OC(C(=O)O)C(OC8OC(COS(=O)(=O)O)C(O)C(O)C8NC(C)=O)C(O)C7OS(=O)(=O)O)C(O)C6NC(C)=O)C(O)C5OS(=O)(=O)O)(COCCC(=O)NCCCCCCCC(=O)NCCCCCCOC5OC(C(=O)O)C(OC6OC(COS(=O)(=O)O)C(OC7OC(C(=O)O)C(OC8OC(COS(=O)(=O)O)C(O)C(O)C8NC(C)=O)C(O)C7OS(=O)(=O)O)C(O)C6NC(C)=O)C(O)C5OS(=O)(=O)O)COCCC(=O)NCCCCCCCC(=O)NCCCCCCOC5OC(C(=O)O)C(OC6OC(COS(=O)(=O)O)C(OC7OC(C(=O)O)C(OC8OC(COS(=O)(=O)O)C(O)C(O)C8NC(C)=O)C(O)C7OS(=O)(=O)O)C(O)C6NC(C)=O)C(O)C5OS(=O)(=O)O)C(OS(=O)(=O)O)C4O)C(NC(C)=O)C3O)C(OS(=O)(=O)O)C2O)OC(COS(=O)(=O)O)C(O)C1O (stereo not shown) [Compound 20c] |  | do not display any measurable ability | ~1.75
9 | O=C(CCCCCCCNC(=O)CCOCC(COCCC(=O)NCCCCCCCC(=O)NCCCCCCOC1OC(C(=O)O)C(OC2OC(COS(=O)(=O)O)C(OC3OC(C(=O)O)C(OC4OC(COS(=O)(=O)O)C(O)C(O)C4NS(=O)(=O)O)C(O)C3OS(=O)(=O)O)C(O)C2NS(=O)(=O)O)C(O)C1OS(=O)(=O)O)(COCCC(=O)NCCCCCCCC(=O)NCCCCCCOC1OC(C(=O)O)C(OC2OC(COS(=O)(=O)O)C(OC3OC(C(=O)O)C(OC4OC(COS(=O)(=O)O)C(O)C(O)C4NS(=O)(=O)O)C(O)C3OS(=O)(=O)O)C(O)C2NS(=O)(=O)O)C(O)C1OS(=O)(=O)O)COCCC(=O)NCCCCCCCC(=O)NCCCCCCOC1OC(C(=O)O)C(OC2OC(COS(=O)(=O)O)C(OC3OC(C(=O)O)C(OC4OC(COS(=O)(=O)O)C(O)C(O)C4NS(=O)(=O)O)C(O)C3OS(=O)(=O)O)C(O)C2NS(=O)(=O)O)C(O)C1OS(=O)(=O)O)NCCCCCCOC1OC(C(=O)O)C(OC2OC(COS(=O)(=O)O)C(OC3OC(C(=O)O)C(OC4OC(COS(=O)(=O)O)C(O)C(O)C4NS(=O)(=O)O)C(O)C3OS(=O)(=O)O)C(O)C2NS(=O)(=O)O)C(O)C1OS(=O)(=O)O (stereo not shown) [Compound 22a] |  | do not display any measurable ability | ~1.67
